Measurements published in the OligoGym collection.
After the bases stand the sugars from the 5' end (letter, count) and the backbone: PS all phosphorothioate, else s phosphorothioate and o phosphodiester by linkage. Methylation of C is not given here. e = 2'-O-(2-methoxyethyl) (MOE); k = constrained ethyl (cEt); d = 2'-deoxy (DNA); m = 2'-O-methyl

Biological target: HSD17B13
Conditions: ASO, HepaRG

Row | Sequence | target mRNA inhibition (1 µM) [%] | also measured
1 | CTCCACACCGCGCTTA (sugars k3 d10 k3, PS) | 7 | 
2 | CTCCAGTAATGAGAAC (sugars k3 d10 k3, PS) | 40 | 
3 | CTCCCACAAAACTAAC (sugars k3 d10 k3, PS) | 13 | 
4 | CTCCTTATTTGTTAGA (sugars k3 d10 k3, PS) | 26 | 
5 | CTCGGGAAGTTTAGAC (sugars k3 d10 k3, PS) | 47 | 
6 | CTCTAAGTTAGCCCCC (sugars k3 d10 k3, PS) | 38 | 
7 | CTCTAGGAGATATAAC (sugars k3 d10 k3, PS) | 49 | 
8 | CTCTATAATAAGGTAA (sugars k3 d10 k3, PS) | 0 | 
9 | CTCTATTGGGCCAGGC (sugars k3 d10 k3, PS) | 46 | 
10 | CTCTATTGGTGTTTTA (sugars k3 d10 k3, PS) | 32 | 
11 | CTCTCTAAAGGGCTGC (sugars k3 d10 k3, PS) | 55 | 
12 | CTCTGGGACCAAGGAT (sugars k3 d1 m1 d8 k3, PS) | 43 | 
13 | CTCTGGGACCAAGGAT (sugars kkdddddddddkekek, PS) | 39 | 
14 | CTCTTGGGTCCATTGT (sugars k3 d10 k3, PS) | 40 | 
15 | CTGCAACTTTTAGTCA (sugars k3 d10 k3, PS) | 21 | 
16 | CTGCTGCTAGTGCCAA (sugars k3 d10 k3, PS) | 57 | 
17 | CTGGAACAATATGGGA (sugars k3 d10 k3, PS) | 38 | 
18 | CTGGGATAGTGGAGGA (sugars k3 d10 k3, PS) | 21 | 
19 | CTGGTTTCATAACCTA (sugars k3 d10 k3, PS) | 9 | 
20 | CTGTAGGACTCTGCTC (sugars k3 d10 k3, PS) | 48 | 

Row | Sequence | target mRNA inhibition (1 µM) [%] | also measured
21 | CTGTCTCCAATACAGG (sugars k3 d10 k3, PS) | 29 | 
22 | CTGTGTTAGCTTTAAT (sugars k3 d1 m1 d8 k3, PS) | 41 | 
23 | CTGTGTTAGCTTTAAT (sugars k3 d9 k3 e1, PS) | 50 | 
24 | CTGTTGCAAGTTCTTC (sugars k3 d10 k3, PS) | 85 | target mRNA inhibition (0.02 µM): 0%; target mRNA inhibition (0.078 µM): 0%; target mRNA inhibition (0.313 µM): 49%; target mRNA inhibition (1.25 µM): 73%; target mRNA inhibition (5 µM): 88%
25 | CTTAAACCTTCCCTGT (sugars k3 d10 k3, PS) | 22 | 
26 | CTTAAACCTTCCCTGT (sugars kkdddddddddkekek, PS) | 36 | 
27 | CTTACTAAGGAAATTC (sugars k3 d10 k3, PS) | 19 | 
28 | CTTAGCTGTGCACTCA (sugars k3 d10 k3, PS) | 60 | 
29 | CTTAGTTCATTGTGAT (sugars k3 d10 k3, PS) | 69 | 
30 | CTTATGAAGTTAGTAT (sugars k3 d10 k3, PS) | 43 | 
31 | CTTATGTAATAGCCAG (sugars k3 d10 k3, PS) | 74 | 
32 | CTTATTAAGTACTGTG (sugars k3 d10 k3, PS) | 0 | 
33 | CTTCACCTGATTTAGA (sugars k3 d10 k3, PS) | 7 | 
34 | CTTCATAGTGGACTTC (sugars k3 d9 k3 e1, PS) | 57 | 
35 | CTTCATAGTGGACTTC (sugars k3 d10 k3, PS) | 79 | target mRNA inhibition (0.02 µM): 3%; target mRNA inhibition (0.078 µM): 4%; target mRNA inhibition (0.313 µM): 28%; target mRNA inhibition (1.25 µM): 66%; target mRNA inhibition (5 µM): 93%
36 | CTTCATCCTTGGTGCT (sugars k3 d10 k3, PS) | 30 | 
37 | CTTGAACAGTCTTAAA (sugars k3 d1 m1 d8 k3, PS) | 49 | 
38 | CTTGAATGAGTGGTCT (sugars k3 d10 k3, PS) | 64 | target mRNA inhibition (0.02 µM): 10%; target mRNA inhibition (0.078 µM): 16%; target mRNA inhibition (0.313 µM): 46%; target mRNA inhibition (1.25 µM): 69%; target mRNA inhibition (5 µM): 88%
39 | CTTGATCTCTTAGCTG (sugars k3 d1 m1 d8 k3, PS) | 32 | 
